Assay results taken from the NIST ThermoML archive (doi:10.1021/je2000205).
Numbers after ± are expanded uncertainties.

Experiment: mn = molality of the nth substance listed, in mol/kg
Conditions: 100 kPa, Liquid; for viscosity: Capillary tube (Ostwald / Ubbelohde) method; for speed of sound: Sing-around technique in a fixed-path interferometer; for mass density: Vibrating tube method

OC[C@H]1O[C@@](CO)(O[C@H]2O[C@H](CO)[C@@H](O)[C@H](O)[C@H]2O)[C@@H](O)[C@@H]1O [D-sucrose] + O
Conditions | mass density, m1 = 1.27 [kg/m3] | speed of sound, m1 = 1.13 [m/s] | viscosity, m1 = 1.13 [mPa·s]
298.15 K | 1127.37 ± 0.18 | 1607.9 ± 1.4 | 2.716 ± 0.27
303.15 K | 1125.37 ± 0.17 | 1615.6 ± 1.3 | 2.376 ± 0.24
308.15 K | 1123.2 ± 0.17 | 1621.9 ± 1.3 | 2.075 ± 0.21
313.15 K | 1120.73 ± 0.17 | 1627 ± 1.3 | 1.795 ± 0.18
318.15 K | 1118.18 ± 0.16 | 1630.8 ± 1.3 | 1.587 ± 0.16
323.15 K | 1115.44 ± 0.17 | 1633.3 ± 1.4 | 1.394 ± 0.14

O=C[C@H](O)[C@@H](O)[C@H](O)[C@H](O)CO [D-glucose] + O
m1 = 1.13
Conditions | mass density [kg/m3] | speed of sound [m/s] | viscosity [mPa·s]
298.15 K | 1065.07 ± 0.12 | 1564.8 ± 1.4 | 1.489 ± 0.15
303.15 K | 1063.3 ± 0.11 | 1574.3 ± 1.3 | 1.278 ± 0.13
308.15 K | 1061.36 ± 0.1 | 1582.4 ± 1.3 | 1.147 ± 0.12
313.15 K | 1059.24 ± 0.1 | 1589.1 ± 1.3 | 0.9944 ± 0.1
318.15 K | 1056.98 ± 0.1 | 1594.4 ± 1.3 | 0.9095 ± 0.091
323.15 K | 1054.25 ± 0.12 | 1598.5 ± 1.4 | 0.8291 ± 0.083
